pEC50: −log10 of the molar value.
What was measured:
[1] = system: HEK293 clonal cell line overexpressing APOL1 G1; experiment: APOL1 G1 HEK293 cell rescue assay (Example B3); type: cell-based; settings: Homo sapiens, HEK293, HEK293 clonal line overexpressing APOL1 G1; geometric mean of at least 2 runs; † = single run; ¥ = concentration at 50% rescue estimated (no sigmoidal curve)
In short: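 HEK293 clonal line overexpressing APOL1 G1; EC50 is half-maximal reversal of APOL1-induced cell death. Values are the geometric mean of ≥2 runs on separate days, each run the average of duplicate wells. Where no sigmoidal curve could be fitted, the concentration giving 50% rescue was estimated.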

[2] = target: T1, APOL1 G2 (Homo sapiens, UniProt O14791, DEL388-389); experiment: APOL1-mediated calcium transport (calcium influx) assay, HEK T-REx/GCaMP6f/APOL1 G2 K6.3 cells, FLIPR TETRA; type: cell-based; settings: prevention of calcium influx; geometric mean of at least 2 assay runs; † = average of a technical replicate from a single assay run
T1 construct: expressed in transfected cells; host or cells: HEK293 T-REx clonal line stably expressing GCaMP6f (HEK T-REx/GCaMP6f/APOL1 G2 K6.3), doxycycline induced
T1 sequence (O14791 with tags, fused parts or gaps DEL388-389): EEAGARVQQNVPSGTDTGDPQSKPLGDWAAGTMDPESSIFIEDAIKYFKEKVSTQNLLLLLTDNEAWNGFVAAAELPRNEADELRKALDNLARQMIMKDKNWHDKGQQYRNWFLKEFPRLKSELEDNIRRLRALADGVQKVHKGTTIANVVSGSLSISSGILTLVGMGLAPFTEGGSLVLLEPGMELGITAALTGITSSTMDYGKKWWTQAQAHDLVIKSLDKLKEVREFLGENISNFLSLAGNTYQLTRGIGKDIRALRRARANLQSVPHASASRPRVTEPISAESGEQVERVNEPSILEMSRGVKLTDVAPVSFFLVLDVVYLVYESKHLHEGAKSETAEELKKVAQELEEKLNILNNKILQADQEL
In short: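 A HEK293 T-REx clone stably expressing GCaMP6f had APOL1 G2 induced with doxycycline (20 ng/mL solution added) for 6 h. Cells were then washed into Ca2+-free Tyrode's buffer (pH 7.4) and preincubated with compounds (duplicate 8-point) for 10 min at room temperature. Ca2+ injection to 5 mM final produced FLIPR GCaMP fluorescence, giving AC50 for influx inhibition (geometric mean, ≥2 runs).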

SMILES | pEC50 [1] | AC50 [2] [nM]
CC(C)N1C(=O)CCc2cc(OCCN3CCC4(CC3)C(=O)Nc3ccc(C#N)cc34)ccc21 [Compound 96, 2-oxo-1′-(2-{[2-oxo-1-(propan-2-yl)-1,2,3,4-tetrahydroquinolin-6-yl]oxy}ethyl)-1,2-dihydrospiro[indole-3,4′-piperidine]-5-carbonitrile] | 6.83 | 552
CC(C)N1C(=O)CCc2cc(OCCN3CCC4(CC3)C(=O)Nc3ccc(Cl)cc34)ccc21 [Compound 97, 5-chloro-1′-(2-{[2-oxo-1-(propan-2-yl)-1,2,3,4-tetrahydroquinolin-6-yl]oxy}ethyl)-1,2-dihydrospiro[indole-3,4′-piperidin]-2-one] | 6.84 | 823
CS(=O)(=O)N(CCO)c1ccc(OCCN2CCC3(CC2)C(=O)Nc2ccc(Cl)cc23)cc1 [Compound 98, N-[4-(2-{5-chloro-2-oxo-1,2-dihydrospiro[indole-3,4′-piperidin]-1′-yl}ethoxy)phenyl]-N-(2-hydroxyethyl)methanesulfonamide] | 6.74 | 600
